According to ChEMBL document CHEMBL3425422, “Discovery of a potent microtubule-targeting agent: Synthesis and biological evaluation of water-soluble amino acid prodrug of combretastatin A-4 derivatives” (Bioorg Med Chem Lett, 2015):
Activity calls are given as the source filed them. No cut-off for these calls is given here.

Experiments:
[1] = Antitumor activity against human SKOV3 cells xenografted in BALB/C mouse assessed as inhibition ratio at 10 mg/kg, iv qd relative to control; type: functional; conditions: SK-OV-3
SK-OV-3 [2] = test: Antitumor activity against human SKOV3 cells xenografted in BALB/C mouse assessed as mouse survival at 10 mg/kg, iv qd relative to control; type: functional, organism-based; parameters: dose 10 mg/kg
[3] = Cytotoxicity against human SKOV3 cells assessed as cell viability after 48 hrs by MTT assay; type: functional, cell-based; conditions: SK-OV-3, 48 h
HepG2 [4] = test: Cytotoxicity against human HepG2 cells assessed as cell viability after 48 hrs by MTT assay; type: functional, cell-based; conditions: HepG2, 48 h
Serum [5] = test: Stability of the compound in Wistar rat serum assessed as prodrug degradation after 24 hrs; type: ADME, cell-free
[6] = Antitumor activity against human H460 cells xenografted in BALB/C mouse assessed as inhibition ratio at 20 mg/kg, ip qd relative to control; type: functional; conditions: NCI-H460, ip, route intraperitoneal
[7] = Aqueous solubility of the compound; type: physicochemical; conditions: water (aqueous)
NCI-H460 = test: Antitumor activity against human H460 cells xenografted in BALB/C mouse assessed as mouse survival at 20 mg/kg, ip qd relative to control; type: functional, organism-based; parameters: dose 20 mg/kg
Serum [8] = test: Stability of the compound in Wistar rat serum assessed as prodrug degradation after 6 hrs; type: ADME, cell-free
[9] = Cytotoxicity against human H460 cells assessed as cell viability after 48 hrs by MTT assay; type: functional, cell-based; conditions: NCI-H460, 48 h
SK-OV-3 [10] = test: Induction of apoptosis in human SKOV3 cells assessed as decrease in Bcl-2/Bax ratio at 100 to 1000 nM after 48 hrs by Western blot analysis; type: functional, cell-based
SK-OV-3 [11] = test: Induction of cell cycle arrest in human SKOV3 cells assessed as accumulation at S phase at 500 nM after 24 hrs by FCM analysis (reference value: 24.09%); type: functional
SK-OV-3 [12] = test: Antimitotic effect in human SKOV3 cells assessed as decrease in cdc2 level by Western blot analysis; type: functional, cell-based
Tubulin (Homo sapiens) [13] = biological target: T1, Tubulin (Homo sapiens) (UniProt P68371+Q9H4B7+P0DPH7+P68366+Q13509+Q71U36+P04350+Q3ZCM7+P07437+P68363+Q9BQE3+Q6PEY2+Q13885+Q9BVA1+Q9BUF5); test: Inhibition of tubulin polymerization in human SKOV3 cells assessed as increase in polymerized (insoluble) tubulin level at 0.1 to 1 uM after 24 hrs by Western blot analysis; type: cell-based; conditions: SK-OV-3
Tubulin (Homo sapiens) [14] = biological target: T1, Tubulin (Homo sapiens); test: Displacement of colchicine from tubulin (unknown origin) after 1 hr by fluorescence based competitive tubulin-binding assay; type: protein-complex assay
SK-OV-3 [15] = test: Induction of cell cycle arrest in human SKOV3 cells assessed as accumulation at G2/M phase after 24 hrs by FCM analysis; type: functional, cell-based
SK-OV-3 [16] = test: Induction of cell cycle arrest in human SKOV3 cells assessed as accumulation at G1 phase at 500 nM after 24 hrs by FCM analysis (reference value: 60.84%); type: functional
SK-OV-3 [17] = test: Induction of cell cycle arrest in human SKOV3 cells assessed as accumulation at G2 phase at 50 nM after 24 hrs by FCM analysis (reference value: 15.07%); type: functional
Tubulin (Homo sapiens) [18] = biological target: T1, Tubulin (Homo sapiens); test: Inhibition of tubulin polymerization in human SKOV3 cells assessed as increase in depolymerized (soluble) tubulin level at 0.1 to 1 uM after 24 hrs by Western blot analysis; type: cell-based; conditions: SK-OV-3
SK-OV-3 [19] = test: Induction of cell cycle arrest in human SKOV3 cells assessed as accumulation at S phase at 100 nM after 24 hrs by FCM analysis (reference value: 24.09%); type: functional
SK-OV-3 [20] = test: Induction of cell cycle arrest in human SKOV3 cells assessed as accumulation at S phase at 50 nM after 24 hrs by FCM analysis (reference value: 24.09%); type: functional
HepG2 [21] = test: Disruption of microtubule organization in human HepG2 cells at 500 nM after 12 hrs by DAPI staining-based fluorescence microscopy; type: functional, cell-based
SK-OV-3 [22] = test: Induction of cell cycle arrest in human SKOV3 cells assessed as accumulation at G1 phase at 50 nM after 24 hrs by FCM analysis (reference value: 60.84%); type: functional
SK-OV-3 [23] = test: Induction of cell cycle arrest in human SKOV3 cells assessed as accumulation at G2/M phase at 100 nM after 24 hrs by FCM analysis (reference value: 15.30%); type: functional
SK-OV-3 [24] = test: Antimitotic effect in human SKOV3 cells assessed as increase in cyclin B level by Western blot analysis; type: functional, cell-based
Rattus norvegicus = test: Prodrug conversion in rat assessed as 4-(4-ethoxyphenyl)-5-(3,4,5-trimethoxyphenyl)thiazol-2-amine in plasma measured as half life at 10 mg/kg, iv; type: ADME, organism-based; parameters: dose 10 mg/kg, route intravenous; conditions: in vivo
SK-OV-3 [25] = test: Induction of cell cycle arrest in human SKOV3 cells assessed as accumulation at G2 phase at 100 nM after 24 hrs by FCM analysis (reference value: 15.07%); type: functional
SK-OV-3 [26] = test: Induction of apoptosis in human SKOV3 cells assessed as PARP cleavage at 100 to 1000 nM after 48 hrs by Western blot analysis; type: functional, cell-based
Tubulin (Homo sapiens) [27] = biological target: T1, Tubulin (Homo sapiens); test: Inhibition of tubulin polymerization (unknown origin) at 5 uM by cell-free tubulin polymerization assay; type: protein-complex assay
SK-OV-3 [28] = test: Antimitotic effect in human SKOV3 cells assessed as decrease in cdc25 level by Western blot analysis; type: functional, cell-based
SK-OV-3 [29] = test: Induction of cell cycle arrest in human SKOV3 cells assessed as accumulation at G2/M phase at 500 nM after 24 hrs by FCM analysis (reference value: 15.30%); type: functional
HepG2 [30] = test: Disruption of microtubule organization in human HepG2 cells at 100 nM after 12 hrs by DAPI staining-based fluorescence microscopy; type: functional, cell-based
Tubulin (Homo sapiens) [31] = biological target: T1, Tubulin (Homo sapiens); test: Inhibition of tubulin polymerization (unknown origin) at 5 to 10 uM by cell-free tubulin polymerization assay; type: protein-complex assay
SK-OV-3 [32] = test: Induction of apoptosis in human SKOV3 cells assessed as decrease in pro-caspase-9 protein level at 100 to 1000 nM after 48 hrs by Western blot analysis; type: functional, cell-based
SK-OV-3 [33] = test: Antimitotic effect in human SKOV3 cells assessed as decrease in p-cdc2 level by Western blot analysis; type: functional, cell-based
SK-OV-3 [34] = test: Induction of MAPK phosphorylation in human SKOV3 cells at 500 nM after 24 hrs by Western blot analysis; type: functional, cell-based
SK-OV-3 [35] = test: Induction of cell cycle arrest in human SKOV3 cells assessed as accumulation at G2 phase at 500 nM after 24 hrs by FCM analysis (reference value: 15.07%); type: functional
SK-OV-3 [36] = test: Induction of apoptosis in human SKOV3 cells assessed as decrease in pro-caspase-3 protein level at 100 to 1000 nM after 48 hrs by Western blot analysis; type: functional, cell-based
SK-OV-3 [37] = test: Induction of cell cycle arrest in human SKOV3 cells assessed as accumulation at G1 phase at 100 nM after 24 hrs by FCM analysis (reference value: 60.84%); type: functional

CCOc1ccc(-c2nc(NC(=O)CN)sc2-c2cc(OC)c(OC)c(OC)c2)cc1.Cl
inhibition in vivo at 10 mg/kg [1]: 17.6% | Activity (SK-OV-3 [2]): Active | IC50 [3]: 200 nM | IC50 (HepG2 [4]): 260 nM | Drug degradation (Serum [5]): 25.92% | inhibition in vivo at 20 mg/kg [6]: 51.1% | solubility [7]: > 10000 µM | Activity (NCI-H460): Active | Drug degradation (Serum [8]): 17.43% | IC50 [9]: 210 nM

CCOc1ccc(-c2nc(NC(=O)[C@H](N)Cc3ccccc3)sc2-c2cc(OC)c(OC)c(OC)c2)cc1
IC50 [3]: > 2000 nM | IC50 (HepG2 [4]): 600 nM | IC50 [9]: > 2000 nM

CCOc1ccc(-c2nc(NC(=O)[C@H](N)CC(C)C)sc2-c2cc(OC)c(OC)c(OC)c2)cc1.Cl
inhibition in vivo at 10 mg/kg [1]: 33.1% | Activity (SK-OV-3 [2]): Active | IC50 [3]: 90 nM | IC50 (HepG2 [4]): 140 nM | Drug degradation (Serum [5]): 91.1% | inhibition in vivo at 20 mg/kg [6]: 52.6% | solubility [7]: 554 µM | Activity (NCI-H460): Active | Drug degradation (Serum [8]): 70.78% | IC50 [9]: 190 nM

CCOc1ccc(-c2nc(NC(=O)C(C)(C)N)sc2-c2cc(OC)c(OC)c(OC)c2)cc1
IC50 [3]: 900 nM | IC50 (HepG2 [4]): 600 nM | IC50 [9]: > 2000 nM

CCOc1ccc(-c2nc(NC(=O)[C@H](C)N)sc2-c2cc(OC)c(OC)c(OC)c2)cc1.Cl
inhibition in vivo at 10 mg/kg [1]: 28.7% | Activity (SK-OV-3 [2]): Active | IC50 [3]: 460 nM | IC50 (HepG2 [4]): 430 nM | Drug degradation (Serum [5]): 99.53% | inhibition in vivo at 20 mg/kg [6]: 56.6% | solubility [7]: > 10000 µM | Activity (NCI-H460): Active | Drug degradation (Serum [8]): 93.03% | IC50 [9]: 210 nM

CCOc1ccc(-c2nc(N)sc2-c2cc(OC)c(OC)c(OC)c2)cc1
IC50 [3]: 10 nM | IC50 (HepG2 [4]): 210 nM | solubility [7]: < 100 µM | IC50 [9]: 200 nM

CCOc1ccc(-c2nc(NC(=O)[C@@H](N)CCSC)sc2-c2cc(OC)c(OC)c(OC)c2)cc1
IC50 [3]: 380 nM | IC50 (HepG2 [4]): 520 nM | IC50 [9]: > 2000 nM

CCOc1ccc(-c2nc(NC(=O)[C@H]3CCCN3)sc2-c2cc(OC)c(OC)c(OC)c2)cc1
IC50 [3]: 510 nM | IC50 (HepG2 [4]): 290 nM | IC50 [9]: > 2000 nM

CCOc1ccc(-c2nc(NC(=O)[C@@H]3CCCN3)sc2-c2cc(OC)c(OC)c(OC)c2)cc1.Cl
IC50 [3]: 80 nM | IC50 (HepG2 [4]): 110 nM | Drug degradation (Serum [5]): 16.55% | inhibition in vivo at 20 mg/kg [6]: 39.4% | solubility [7]: 458 µM | Activity (NCI-H460): Active | Drug degradation (Serum [8]): 12.54% | IC50 [9]: > 2000 nM

CCOc1ccc(-c2nc(NC(=O)[C@@H](N)Cc3ccccc3)sc2-c2cc(OC)c(OC)c(OC)c2)cc1.Cl
IC50 [3]: 100 nM | IC50 (HepG2 [4]): 90 nM | Drug degradation (Serum [5]): 70.21% | inhibition in vivo at 20 mg/kg [6]: 46.1% | solubility [7]: 436 µM | Activity (NCI-H460): Active | Drug degradation (Serum [8]): 45.85% | IC50 [9]: > 2000 nM

CCOc1ccc(-c2nc(NC(=O)C(N)COCc3ccccc3)sc2-c2cc(OC)c(OC)c(OC)c2)cc1.Cl (centres undefined)
IC50 [3]: 300 nM | IC50 (HepG2 [4]): 470 nM | Drug degradation (Serum [5]): 42.56% | inhibition in vivo at 20 mg/kg [6]: 44.8% | solubility [7]: 259 µM | Activity (NCI-H460): Active | Drug degradation (Serum [8]): 39.46% | IC50 [9]: > 2000 nM

CCOc1ccc(-c2nc(NC(=O)[C@@H](N)C(C)C)sc2-c2cc(OC)c(OC)c(OC)c2)cc1.Cl
Activity (SK-OV-3 [10]): Active | Activity (SK-OV-3 [11]): 3.97% | inhibition (SK-OV-3 [12]): Active | inhibition (Tubulin (Homo sapiens) [13]): Active | inhibition (Tubulin (Homo sapiens) [14]): Dose-dependent effect | Activity (SK-OV-3 [15]): Dose-dependent effect | inhibition in vivo at 10 mg/kg [1]: 43.1% | Activity (SK-OV-3 [16]): 1.22% | Activity (SK-OV-3 [17]): 10.22% | inhibition (Tubulin (Homo sapiens) [18]): Active | Activity (SK-OV-3 [19]): 15.49% | Activity (SK-OV-3 [2]): Active | IC50 [3]: 420 nM | Activity (SK-OV-3 [20]): 34.11% | Activity (HepG2 [21]): Active | Activity (SK-OV-3 [22]): 55.67% | IC50 (HepG2 [4]): 390 nM | Activity (SK-OV-3 [23]): 41.4% | Drug degradation (Serum [5]): 38.23% | inhibition in vivo at 20 mg/kg [6]: 55% | Activity (SK-OV-3 [24]): Active | solubility [7]: > 10000 µM | t1/2 (Rattus norvegicus): 2.93 h | Activity (NCI-H460): Active | Activity (SK-OV-3 [25]): 40.71% | Activity (SK-OV-3 [26]): Active | inhibition (Tubulin (Homo sapiens) [27]): Active | inhibition (SK-OV-3 [28]): Active | Activity (SK-OV-3 [29]): 93.1% | Activity (HepG2 [30]): Active | Drug degradation (Serum [8]): 12.77% | IC50 [9]: 200 nM | inhibition (Tubulin (Homo sapiens) [31]): Active | Activity (SK-OV-3 [32]): Active | inhibition (SK-OV-3 [33]): Active | Activity (SK-OV-3 [34]): Active | Activity (SK-OV-3 [35]): 94.51% | Activity (SK-OV-3 [36]): Active | Activity (SK-OV-3 [37]): 43.5%
